Experimental data as given in US8354438B2, “Neurological functions” (priority 2001, dated 2013).
Counter-ions that a name gives are not always drawn. Like-named read-outs stand apart in the source and are kept apart here. Marks after values point to notes of the source that are not given here.

Tests used:
[1] = system: Helicobacter pylori; conditions: Matsukura and Tanaka 2000; cited from earlier work
[2] = system: carnosinase; conditions: compared with the parent compound carnosine; Boldyrev 2000; cited from earlier work
[3] = system: children with Autistic spectrum disorders; conditions: for Rec. Speech Age (N = 31) / CARS (N = 35) / Exp. Speech Age (N = 31): Group I combined with Group II
Source text: American Psychiatric Association. Diagnostic and Statistical Manual of Mental Disorders (4th ed.). Washington, D.C.: Author 1994. Diagnosis was confirmed by a pediatric neurologist after completing a comprehensive neurological evaluation and also by a clinical interview with a clinical psychologist. No child was excluded based upon intelligence estimate or developmental language level.
We included patients with abnormal electroencephalograns (EEGs) as they represent an important section of the ASD population. Hollander, E. et al., J. Clin. Psychiatry 2001; 62(7): 530-534. […] Hollander, E. et al., J. Clin. Psychiatry 2001; 62(7): 530-534 DiMartino, A. and Tuchman, R. F., Pediatric Neurology 2001; 25(3): 199-207. Other patients were maintained on corticosteroids (N=6, pulse-dose prednisone or prednisolone), CNS stimulants (N=8, dextroamphetamine/amphetamine or methylphenidate), antidepressants (N=7, fluoxetine hydrochloride or paroxetine), antipsychotics (N=4, risperidone), or alpha adrenergic blocking agents (N=9, clonidine).
The standard donepezil dosage recommendation of 5 milligrams was halved in accordance with pediatric protocols to arrive at a quantity of 2.5 milligrams. The duration of the double-blind, parallel trial was six weeks, at which time all subjects entered open-label treatment for an additional six weeks.
The dose was lowered to 1.25 milligrams or discontinued throughout the 12-week trial if adverse events persisted for more than one week (e.g., irritability, hyperactivity, or gastrointestinal problems). The maximum daily dose was 2.5 milligrams. The medication was adjusted by halving the dose (1.25 mg) if parents noted their children to have tolerable yet persistent gastrointestinal distress, hyperactivity, or irritability. Medication was discontinued if GI intolerability or changes in behavior were considered to be an adverse event (i.e., persisted for more than […]). Medication was administered at dinnertime, unless restlessness occurred in sleep, in which case administration was changed to an earlier time in the day. Dinnertime was selected as the preferred administration time in an attempt to alleviate gastrointestinal side effects observed in the dementia population.
All staff, including nurses, were blinded to the status of the patients on either placebo or drug during the six-week double-blind phase. Patient progress and side effects were monitored at the scheduled appointments by study coordinators, nursing staff, and the primary investigator. Gardner's Receptive One-Word Picture Vocabulary Test (ROWPVT), the EOWPVT-R, and the Childhood Autism Rating Scale (CARS) were administered at baseline, 6-week, and 12-week follow-up visits by the same study coordinator (R.T.):
Outcome Measures: The Receptive One-Word Picture Vocabulary Test, Gardner, M. F. Receptive One-Word Picture Vocabulary Test: ROWPVT. Novato, Calif.: Academic Therapy Publications 1985, examines a child's understanding of language and is an effective tool for assessing receptive language in children with expressive language difficulties. The test was developed for children ages two through twelve. Participants are shown a group of four pictures and asked to point to the picture corresponding to the word presented aurally by the clinician. The test is completed when the child makes six errors of eight consecutive items.
The Expressive One-Word Picture Vocabulary Test—Revised can be used as a tool to determine auditory-visual-verbal association ability as well as expressive language functioning in young children ages two through 12. Gardner, M. F. Expressive One-Word Picture Vocabulary Test (Revised): EOWPVT-R. Novato, Calif.: Academic Therapy Publications 1990. The test was developed to address general concrete concepts, grouping, abstract concepts, and descriptive concepts.

[4] = system: children with ASD; assay: Subsequent long-term observation of children with ASD on DH; type: in vivo, human
Source text: We have subsequently followed over 100 children with ASD on DH for up to 20 months since the conclusion of this study. […] Further long-term use of cholinesterase inhibitors may lead to greater understanding of the possible ability to sustain new neuronal connections in a brain that has more neuronal plasticity than the elderly with Alzheimer's Disease.

[5] = Group I (DH), Baseline to Week 6, placebo group 30%
[6] = Group I (DH, DH) N = 23, BASELINE
[7] = Group I (DH, DH), DH 2.5 milligrams, 6-WEEK, p < .05, BL compared to 6 week
[8] = Group I (DH, DH), DH 2.5 milligrams, 12-WEEK, p < .05, BL compared to 6 and 12 week

NCCC(=O)[N-][C@@H](Cc1c[nH]cn1)C(=O)[O-].[Zn+2] [L-CAZ]
Helicobacter pylori inhibition [1]: inhibited

NCCC(=O)NCCc1c[nH]cn1 [carcinine]
rate of hydrolysis [2]: negligible

CC(=O)NCCC(=O)N[C@@H](Cc1cnc[nH]1)C(=O)O [N-acetylcarnosine]
rate of hydrolysis [2]: negligible

Cn1cncc1C[C@H](NC(=O)CCN)C(=O)O [ophidine, β-Alanlyl-3-methyl-L-histidine]
rate of hydrolysis [2]: much more slowly

COc1cc2c(cc1OC)C(=O)C(CC1CCN(Cc3ccccc3)CC1)C2 (stereo not shown) [DH, donepezil hydrochloride]
children with CARS change scores ([Baseline]-[6 Week score]) indicating improvement of 3.0 or greater [3, 5]: 50%
children with clinically meaningful worsening of CARS scores [3, 5]: 12.5%
CARS [3, 6]: 34.7 (SD = 7.7)
Exp. Speech Age (mos.) [3, 6]: 35.7 (SD = 27.8) mos.
Rec. Speech Age (mos.) [3, 6]: 38.8 (SD = 23.5) mos.
CARS ([3]; Group I (DH, DH), DH 2.5 milligrams, 6-WEEK): 33.3 (SD = 8.0)
Exp. Speech Age (mos.) [3, 7]: 43.3 (SD = 27.2)* mos.
Rec. Speech Age (mos.) [3, 7]: 50.3 (SD = 27.0)* mos.
Exp. Speech Age (mos.) [3, 8]: 42.5 (SD = 28.5)*** mos.
Rec. Speech Age (mos.) [3, 8]: 49.7 (SD = 34.2)*** mos.
CARS ([3]; Group I (DH, DH), DH 2.5 milligrams, 12-WEEK, p < .05, BL compared to 12 week): 30.8 (SD = 7.9)**
Rec. Speech Age (N = 31) ([3]; 6-weeks DH, p value .002): 53.2 (SD = 25.8)
CARS (N = 35) ([3]; 6-weeks DH, p value .004): 32.2 (SD = 8.5)
Exp. Speech Age (N = 31) ([3]; 6-weeks DH, p value .044): 43.6 (SD = 31.8)
CARS (N = 35) ([3]; BASELINE before six weeks DH): 34.7 (SD = 7.4)
Exp. Speech Age (N = 31) ([3]; BASELINE before six weeks DH): 39.3 (SD = 27.9)
Rec. Speech Age (N = 31) ([3]; BASELINE before six weeks DH): 43.7 (SD = 22.2)
Exp. Speech Age (mos.) ([3]; Group II (Placebo, DH): six weeks placebo then six weeks DH, 12-WEEK, end of placebo 33.8 (SD = 32.9), reduced N (=16), p < .05): 40.9 (SD = 38.8)***^@ mos.
Rec. Speech Age (mos.) ([3]; Group II (Placebo, DH): six weeks placebo then six weeks DH, 12-WEEK, end of placebo 39.83 (SD = 27), reduced N (=16), p < .05, 6 compared to 12 week): 87.37 (SD = 14.2)**^@ mos.
CARS ([3]; Group II (Placebo, DH): six weeks placebo then six weeks DH, 12-WEEK, end of placebo (6-WEEK) 32.9 (SD = 7.7), p < .05): 30.9 (SD = 9.1)*
patients dropped from the study after the first 6 weeks who had been on DH ([3]; of nine patients dropped): 6/9
patients discontinued due to diarrhea or stomach cramping ([3]; of the 6 dropped patients on DH): 2 patients
long-term deficits or down-regulation effect ([4]; over 100 children with ASD on DH for up to 20 months): No obvious long-term deficits or suspected down-regulation effect
regressions or lost skills after stopping the medication ([4]; patients stopped the medication after 6 additional months): no patients had major regressions or lost skills
